Experimental data taken from patent US5891917A, “Certain acrylonitrile-sulfonamide derivatives” (Sugen, Inc., priority 1997, dated 1999).

What was measured:
Insulin Receptor = biological target: T1, Insulin Receptor (Homo sapiens, UniProt P06213); experiment: Cellular Insulin Receptor ELISA; type: cell-based; conditions: H25 cells, 100 nM insulin; read-out: ELISA DATA: IR
T1 construct: expressed in transfected cells; host or cells: H25 (NIH3T3 line overexpressing Insulin Receptor)
Protocol: Cellular Insulin Receptor ELISA (Version I)
The following protocol describes the cell line, reagents and procedures used to measure phosphotyrosine level on Insulin Receptor, which indicates Insulin Receptor tyrosine kinase activity.
MATERIALS AND REAGENTS (1). The cell line used in this assay is H25 (ATCC #CRL 8017), an NIH3T3 cell line which overexpresses Insulin Receptor.
(2). H25 cells are grown in an incubator with 5% CO2 at 37° C. The growth media is DMEM+10% FBS (heat inactivated)+2 mM L-Glutamine.
(3). For ELISA plate coating, the monoclonal anti-IR antibody named BBE is used. Antibodies are purified by the Enzymology Lab, SUGEN, Inc.
(1). The cells, grown in tissue culture dish (10 cm, Corning 25020-100) to 80-90% confluence, are harvested with Trypsin-EDTA (0.25%, 0.5 ml/D-100, GIBCO).
(2). Resuspend the cells in fresh DMEM+10% FBS+2 mM L-Glutamine, and transfer to 96-well tissue culture plate (Coming, 25806-96) at 20,000 cells/well (100 ul/well). Incubate for 1 day then replace medium to 0.01% serum medium (90/ul) and incubate in 5% CO2 and 37° C. overnight.
(1). Coat the ELISA plate (Corning 25805-96) with Anti-IR Antibody at 0.5 ug/well in 100 ul PBS at least 2 hours.
(2). Remove the coating solution, and replace with 100 ul Blocking Buffer, and shake for 30 minutes. Remove the blocking buffer and wash the plate just before adding lysate.
(1). The drugs are tested in serum-free condition.
(2). Dilute drug stock (in 100% DMSO) 1:10 with DMEM in 96-well poly-propylene plate, and transfer 10 ul/well of this solution to the cells to achieve final drug dilution 1:100, and final DMSO concentration of 1.0%. Incubate the cells in 5% CO2 at 37° C. for 2 hours.
(3). Prepare fresh cell lysis buffer (HNTG*) HNTG 2 ml EDTA 0.1 ml Na3VO4 0.1 ml Na4P2O7 0.1 ml H20 7.3 ml HNTG* 10 ml.
(4). After drug incubation for two hours, transfer 10 ul/well of 1 μM Insulin in PBS to the cells (Final Conc=100 nM), and incubate at 5% CO2 at 37° C. for 10 minutes.
(5). Remove media and add 100 ul/well HNTG* and shake for 10 minutes. Look at cells under microscope to see if they are adequately lysed.
(6). Use a 12-channel pipette to scrape the cells from the plate, and homogenize the lysate by repeat aspiration and dispense. Transfer all the lysate to the antibody coated ELISA plate [V.2.(2)], and shake for 1 hour.
(7). Remove the lysate, wash the plate, transfer anti-pTyr (1:3,000 with TBST) 100 ul/well, and shake for 30 minutes.
(8). Remove anti-pTyr, wash the plate, transfer detection antibody (1:3,000 with TBST) 100 ul/well, and shake for 30 minutes.
(9). Remove detection antibody, wash the plate, and transfer fresh ABTS/H2O2 (1.2 ul H2O2 to 10 ml ABTS) 100 ul/well to the plate to start color development.

MCF7/HER2 cells = experiment: MCF-7/HER-2 SRB Growth Assay; type: cell-based; conditions: Homo sapiens, read-out: Growth Data: MC7/HER2 (0.5% FBS)
Text: The following examples illustrate the ability of the exemplary compounds to inhibit receptor tyrosine kinases, such as HER2 and/or EGFR. The following target cells were used for cellular kinase assays: NIH3T3 clone C7 (Honegger et al., supra) engineered to over-express human EGF receptor; NIH3T3 cells engineered to over-express a chimeric receptor containing the EGFR extracellular domain and the HER2 intracellular kinase domain; the human mammary carcinoma line BT474 (ATCC HTB2) expressing HER2; and the human glioblastoma line U1242 that expresses PDGFR-beta. Growth assays were carried out using human mammary epithelial SKBR3 (ATCC HTB30) cells (SKBR3 cells over-express HER2), SKOV3 (ATCC HTB77) human ovarian cancer cell line (SKOV3 cells also over-express HER2), A431 cells (A431 cells over-express EGFR) MCF7 human breast carcinoma cells, MCF7 cells overexpressing the HER2 kinase (MCF7-HER2), NIH3T3 cells, and NIH3T3 cells overexpressing the HER2 kinase (3T3-HER2.
MCF-7/HER-2 SRB Growth Assay
The protocol is basically the same as that above (for the MCF-7 Growth Assay) except that immediately before the 30 compound is added, the normal growth media is removed and 0.5% FBS/RPMI supplemented with 2 mM Glutamine is added onto the cells. The compound is also prepared in this 0.5% serum media. The plate of cells is incubated for four days and developed as usual.

T1 sequence (P06213 763-1382 limits assumed, species assumed): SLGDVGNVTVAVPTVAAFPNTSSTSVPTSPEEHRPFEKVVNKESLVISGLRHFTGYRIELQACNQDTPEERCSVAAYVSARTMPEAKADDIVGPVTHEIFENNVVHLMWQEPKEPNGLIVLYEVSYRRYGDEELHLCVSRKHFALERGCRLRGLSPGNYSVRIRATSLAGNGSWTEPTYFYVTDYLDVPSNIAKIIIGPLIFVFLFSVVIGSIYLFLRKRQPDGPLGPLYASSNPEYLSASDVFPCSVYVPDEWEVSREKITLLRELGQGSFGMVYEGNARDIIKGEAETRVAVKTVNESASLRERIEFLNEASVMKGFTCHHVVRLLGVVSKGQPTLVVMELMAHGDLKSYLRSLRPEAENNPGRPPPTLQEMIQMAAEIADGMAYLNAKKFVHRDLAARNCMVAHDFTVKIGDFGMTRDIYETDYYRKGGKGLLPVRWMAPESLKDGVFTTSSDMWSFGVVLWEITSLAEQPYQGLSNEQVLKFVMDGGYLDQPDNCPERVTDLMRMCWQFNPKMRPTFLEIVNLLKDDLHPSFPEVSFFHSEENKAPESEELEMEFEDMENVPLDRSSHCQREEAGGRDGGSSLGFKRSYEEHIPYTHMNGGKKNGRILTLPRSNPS
T1 sequence (P06213 28-758 partner limits assumed, species assumed): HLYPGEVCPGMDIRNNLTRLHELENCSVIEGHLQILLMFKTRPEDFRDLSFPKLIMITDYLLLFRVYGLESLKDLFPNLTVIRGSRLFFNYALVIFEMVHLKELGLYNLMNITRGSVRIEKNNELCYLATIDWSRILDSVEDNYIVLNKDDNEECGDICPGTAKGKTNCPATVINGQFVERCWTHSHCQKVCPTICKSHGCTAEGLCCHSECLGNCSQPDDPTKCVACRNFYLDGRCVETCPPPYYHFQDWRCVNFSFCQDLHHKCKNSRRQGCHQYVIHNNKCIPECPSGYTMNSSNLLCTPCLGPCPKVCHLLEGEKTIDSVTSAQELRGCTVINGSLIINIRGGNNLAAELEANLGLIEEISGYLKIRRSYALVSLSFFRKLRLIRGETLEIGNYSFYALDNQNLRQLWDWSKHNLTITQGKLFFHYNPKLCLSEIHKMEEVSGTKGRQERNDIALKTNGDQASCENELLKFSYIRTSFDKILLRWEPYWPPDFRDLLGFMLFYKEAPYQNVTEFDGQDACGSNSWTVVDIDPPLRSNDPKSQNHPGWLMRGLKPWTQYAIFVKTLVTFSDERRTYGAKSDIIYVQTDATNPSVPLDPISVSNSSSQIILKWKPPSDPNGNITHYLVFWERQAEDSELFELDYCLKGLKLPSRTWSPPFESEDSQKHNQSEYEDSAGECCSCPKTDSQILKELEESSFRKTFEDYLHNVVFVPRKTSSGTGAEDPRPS

SMILES	IC50 (Insulin Receptor)	IC50 (MCF7/HER2 cells)
CC(C)c1cc(/C=C(\C#N)S(=O)(=O)c2ccccc2)cc(C(C)C)c1O [Compound 731]	12 µM	1 µM
CC(C)c1cc(/C=C(\C#N)S(=O)(=O)NCc2ccccc2)cc(C(C)C)c1O [Compound 732]	8.8 µM	2.5 µM
N#C/C(=C\c1ccc(O)cc1Cl)S(=O)(=O)NCc1ccccc1 [Compound 733]	> 100 µM	16 µM
N#C/C(=C\c1ccc(O)cc1Cl)S(=O)(=O)NCCCc1ccccc1 [Compound 734]	51 µM	7 µM
CC(C)(C)c1cc(/C=C(\C#N)S(=O)(=O)Cc2cccc(C(F)(F)F)c2)cc(C(C)(C)C)c1O [Compound 735]	–	0.5 µM
CC(C)c1cc(/C=C(\C#N)S(=O)(=O)Cc2cccc(C(F)(F)F)c2)cc(C(C)C)c1O [Compound 736]	15.1 µM	1 µM
CC(C)c1cc(/C=C(\C#N)S(=O)(=O)c2cccs2)cc(C(C)C)c1O [Compound 737]	–	3 µM
CC(C)c1cc(/C=C(\C#N)S(=O)(=O)c2ccsc2)cc(C(C)C)c1O [Compound 738]	–	3 µM
Cc1cc(/C=C(\C#N)S(=O)(=O)Cc2cccc(C(F)(F)F)c2)cc(C)c1O [Compound 739]	–	14 µM
CC(C)(C)c1cc(/C=C(\C#N)S(=O)(=O)c2ccc(F)cc2)cc(C(C)(C)C)c1O [Compound 740]	–	0.007 µM
CC(C)c1cc(/C=C(\C#N)S(=O)(=O)c2ccc(F)cc2)cc(C(C)C)c1O [Compound 741, (E)-3-(3,5-Diisopropyl-4-hydroxyphenyl)-2-(4-fluorophenylsulfonyl)acrylonitrile]	9.2 µM	1 µM
CC(C)(C)c1cc(/C=C(\C#N)S(=O)(=O)c2cccs2)cc(C(C)(C)C)c1O [Compound 742]	–	0.2 µM
Cc1cc(/C=C(\C#N)S(=O)(=O)c2ccc(F)cc2)cc(C)c1O [Compound 744]	–	46 µM
CC(C)c1cc(/C=C(\C#N)S(=O)(=O)/C(C#N)=C/c2cc(C(C)C)c(O)c(C(C)C)c2)cc(C(C)C)c1O [Compound 745]	27 µM	–
CC(C)(C)c1cc(/C=C(\C#N)S(=O)(=O)c2ccsc2)cc(C(C)(C)C)c1O [Compound 746]	–	0.3 µM
CC(C)c1cc(/C=C(\C#N)S(=O)(=O)c2ccccn2)cc(C(C)C)c1O [Compound 747]	–	26 µM
Cc1cc(/C=C(\C#N)S(=O)(=O)c2ccccc2)cc(C)c1O [Compound 748]	–	46 µM
